Results: US5688640A, “Methods of screening of effectors of endothelin converting enzyme-1” (Board of Regents, The University of Texas System, priority 1994, dated 1997)
“Also recorded” adds a separate entry of the source. Ends that are not written are not given here.

Columns and labels:
[1] = ET-1(1-20) and ET-1(1-22) relative to authentic ET-1(1-21); cited from earlier work
ECE [2] = biological target: T1, ECE (Bos taurus, UniProt Q28010); assay: ECE activity in bovine adrenal cortex membrane fractions; format: biochemical
T1 construct: full length 758 aa
T1 sequence (Q28010 1-758): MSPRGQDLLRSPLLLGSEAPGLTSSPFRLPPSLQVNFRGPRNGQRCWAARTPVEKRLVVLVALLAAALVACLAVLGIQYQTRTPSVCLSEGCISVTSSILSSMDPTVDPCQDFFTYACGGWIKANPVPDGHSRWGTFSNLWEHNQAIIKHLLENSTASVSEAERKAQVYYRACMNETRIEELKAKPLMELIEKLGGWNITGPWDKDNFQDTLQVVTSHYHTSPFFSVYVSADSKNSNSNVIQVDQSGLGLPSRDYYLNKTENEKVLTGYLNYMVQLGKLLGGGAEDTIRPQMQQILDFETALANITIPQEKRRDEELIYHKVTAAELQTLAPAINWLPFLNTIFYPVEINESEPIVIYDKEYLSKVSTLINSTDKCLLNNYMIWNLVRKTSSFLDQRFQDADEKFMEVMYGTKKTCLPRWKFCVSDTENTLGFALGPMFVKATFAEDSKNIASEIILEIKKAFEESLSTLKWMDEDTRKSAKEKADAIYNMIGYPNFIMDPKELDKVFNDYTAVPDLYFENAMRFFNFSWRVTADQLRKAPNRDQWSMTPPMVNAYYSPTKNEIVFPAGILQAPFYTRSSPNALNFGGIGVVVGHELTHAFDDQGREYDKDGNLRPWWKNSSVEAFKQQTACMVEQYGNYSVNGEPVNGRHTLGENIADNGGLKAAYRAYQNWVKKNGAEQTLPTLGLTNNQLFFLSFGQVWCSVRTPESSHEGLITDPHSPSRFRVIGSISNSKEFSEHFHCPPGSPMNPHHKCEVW
Experimental: Bovine adrenal glands were obtained at a local slaughter house, immediately immersed in ice-cold Dulbecco's phosphate buffered saline (PBS), and brought to the laboratory within 2 hours. All subsequent procedures were performed at 4° C. Adrenal cortices were carefully separated from the medulla and connective tissue. […] The homogenate was centrifuged at 1,000×g for 10 min, and the resulting supernatant was further centrifuged at 100,000×g for 60 min. The pellet was resuspended in 5×volume of buffer A by a Teflon homogenizer, and centrifuged again at 100,000×g for 60 min. The crude membrane pellet was solubilized at 10-20 mg protein/ml in buffer A containing 2.5% C12 E10 for 30 min. The mixture was centrifuged at 100,000×g for 60 min, and the supernatant was saved as solubilized membrane.

endothelial ECE = conditions: cited from earlier work; for inhibition of endothelial ECE activity (in words): membranes and purified preparations
ECE [3] = conditions: cited from earlier work
[4] = system: cultured endothelial cells; conditions: cited from earlier work
human ETA receptor = biological target: T2, human ETA receptor (Homo sapiens, UniProt P25101); assay: Ca2+ transient bioassay in CHO cells expressing human ETA receptors; format: cell-based
T2 sequence (P25101 21-427): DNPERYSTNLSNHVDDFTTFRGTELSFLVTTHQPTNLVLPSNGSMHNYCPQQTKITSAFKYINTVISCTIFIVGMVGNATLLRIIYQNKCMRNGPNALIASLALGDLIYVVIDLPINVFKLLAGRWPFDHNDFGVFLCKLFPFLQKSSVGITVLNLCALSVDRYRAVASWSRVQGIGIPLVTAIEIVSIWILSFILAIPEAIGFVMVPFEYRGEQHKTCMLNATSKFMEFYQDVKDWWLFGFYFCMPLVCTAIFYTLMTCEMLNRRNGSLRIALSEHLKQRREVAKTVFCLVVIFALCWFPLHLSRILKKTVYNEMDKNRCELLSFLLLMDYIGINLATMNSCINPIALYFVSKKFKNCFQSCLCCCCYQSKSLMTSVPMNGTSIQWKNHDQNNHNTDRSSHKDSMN
Experimental: Bioassay of culture supernatants from preproET-1-transfected CHO/ECE-1 cells using CHO cells expressing human ETA receptors as reporter cells. Sup-A and Sup-B represents the serum-free medium conditioned for 12 hours with CHO/ECE-1 and CHO cells each transiently transfected with the preproET-1 construct, respectively.
For the Ca^2+ transient bioassay (see below), Phenol Red-free CHO-SFM medium (Gibco/BRL) without serum was used in order to avoid artefacts induced by serum and the dye.
A CHO stable transfectant clone expressing human ETA receptors was loaded with fura-2/AM, and ET-1 induced intracellular calcium transients were monitored by a Jasco CAM-110 Intracellular Ion Analyzer as previously described (Sakamoto et al., 1993).
The functional authenticity of the immunoreactive mature peptide produced from the double-transfected cells was examined with a bioassay system that uses another line of CHO cells expressing human ETA receptors as reporter cells. A stable transfectant cell line was obtained by transfecting CHO cells with a human ETA receptor construct (Sakamoto et al., 1993). […] Next the supernatants from the preproET-1-transfected CHO/ECE-1 cells were added, so that the final concentration of ET-1 as measured by EIA was ≈20 pM.

ECE-1 [5] = biological target: T3, ECE-1 (Bos taurus, UniProt P42891); assay: Reconstitution of ECE-1 activity by metal ions after EDTA stripping; format: biochemical, bovine; conditions: ZnCl2 300 μM after 30 μM EDTA
T3 construct: The entire coding regions from bovine ECE-1; made in house
T3 sequence (P42891 with tags, fused parts or gaps A87G/A695G limits assumed): T1 sequence (Q28010 1-758)
Experimental: FIG. 2D. […] After incubating on ice for 15 min, the designated concentrations of metal ions were added as chloride salt and ECE activity was measured.
(§1) Reaction mixtures for ECE assay (50 μl) contained 0.1M sodium phosphate buffer (pH 6.8), 0.5M NaCl, 0.1 μM human big ET-1(1-38) and enzyme fraction. For some studies, the reactions were preincubated at 37° C. with various protease inhibitors for 15 minutes prior to the addition of big ET-1. The reactions were incubated at 37° C. for 30 min in siliconized 0.5-ml microcentrifuge tubes. […] Duplicate assay wells were used for each enzyme reaction. Protein concentration was determined by the Bradford method (Bio-Rad) using IgG as standard.
Approximately 3,000-cm^2 confluent monolayers of cells (≈10^8 cells) were rinsed twice with ice-cold PBS. Cells were scraped off by a rubber policeman in ice-cold PBS, and collected by centrifugation. All subsequent procedures were performed at 4° C. Cells were resuspended in 10×volume of buffer B (20 mM Tris-HCl (pH 7.4)/20 μM pepstatin A/1 mM PMSF/1 MM pCMS/250 mM sucrose), and homogenized by a 30-ml Teflon homogenizer with the piston rotating at 300 r.p.m. […]

ECE-1 [6] = biological target: T3, ECE-1; assay: Secretion of big and mature ET-1 by preproET-1-transfected CHO/ECE-1 cells (conversion of endogenous big ET-1); format: cell-based, bovine
Experimental: (§2) Transient transfection of the preproET-1 cDNA was performed by the DEAE-dextran method as described (Sakurai et al., 1990). Twelve hours after transfection, cells were refed with fresh medium with or without ECE inhibitors. The medium was conditioned for an additional 12 hours and directly subjected to EIA for mature and big ET-1 (Suzuki et al., 1990; Suzuki et al., 1989). For the Ca^2+ transient bioassay (see below), Phenol Red-free CHO-SFM medium (Gibco/BRL) without serum was used in order to avoid artefacts induced by serum and the dye.
To examine whether the expressed ECE-1 can convert big ET-1 in intact cells, paired cultures of CHO/ECE-1 cells and untransfected CHO cells were transiently transfected with the preproET-1 construct. After the transient transfection, the amounts of mature and big ET-1 secreted into the medium were measured by EIA. […] The functional authenticity of the immunoreactive mature peptide produced from the double-transfected cells was examined with a bioassay system that uses another line of CHO cells expressing human ETA receptors as reporter cells. […] The cells were loaded with the Ca^2+ indicator Fura-2/AM, and directly challenged with serum-free, Phenol Red-free culture supernatants from the aforementioned double-transfection protocols. […] Next the supernatants from the preproET-1-transfected CHO/ECE-1 cells were added, so that the final concentration of ET-1 as measured by EIA was ≈20 pM.

ECE-1 [7] = biological target: T3, ECE-1; assay: Production of mature ET-1 by 1:1 co-cultures of CHO/ECE-1 and CHO/preproET-1 cells (conversion of exogenous big ET-1); format: cell-based, bovine
Experimental: as §2
Next, the ability of CHO/ECE-1 cells to convert exogenously supplied big ET-1 was examined by co-culturing the cells with a separate CHO cell line that was stably transfected with the preproET-1 construct (CHO/preproET-1 cells).

ECE-1 [8] = biological target: T3, ECE-1; assay: Substrate conversion / isopeptide selectivity of cloned ECE-1 (CHO/ECE-1 membranes or homogenate, EIA); format: biochemical, bovine; conditions: in vitro; big endothelin isopeptides 0.1 μM
Experimental: FIG. 2A. Functional expression of ECE-1 cDNA in transfected CHO cells.
FIG. 2E. Isopeptide selectivity of ECE-1 expressed in solubilized CHO/ECE-1 membranes. Designated synthetic big endothelin isopeptides (0.1 μM) were used as substrates and generation of corresponding mature peptides were measured by EIA.
as §1

ECE-1 [9] = biological target: T3, ECE-1; assay: HPLC analysis of big ET-1 conversion by partially purified ECE-1 from CHO/ECE-1 cells; format: biochemical, bovine; conditions: 5 μM big ET-1, 24 hr
Experimental: FIG. 3. HPLC analysis of big ET-1 conversion by partially purified ECE-1 from CHO/ECE-1 cells. ECE-1 was partially purified from solubilized CHO/ECE-1 membranes by WGA-agarose chromatography as described in Example 1. The enzyme fraction (800 μg protein) was incubated at 37° C. with 1 μM big ET-1 in 800 μl of ECE assay buffer. […] The reaction mixture was separated by HPLC as described in Example 1. Arrows indicate elution times of the authentic peptides.
Samples were injected into a C18 reverse-phase HPLC column (Ultrasphere ODS 5 μm, 4.6×250 mm; Beckman), which was eqhilibrated with 18% (v/v) acetonitrile/0.1% (v/v) TFA and maintained at 40° C. The column was eluted at a flow rate of 1 ml/min with an 18-30% linear gradient of acetonitrile in 0.1% TFA over 12 minutes followed by a 30-36% linear gradient over an additional 12 minutes. Peptides were detected by UV absorbance at 210 nm. […] To confirm chemical authenticity of immunoreactivity in culture supernatants, the conditioned medium was pre-extracted with a Sep-Pak C18 cartridge as described (Suzuki et al., 1989) before HPLC. HPLC fractions (0.5 ml) were collected and evaporated to dryness under vacuum. […] No other immunoreactive peaks were detected. […]

ECE-1 [10] = biological target: T3, ECE-1; assay: ECE activity in solubilized CHO/ECE-1 membranes/homogenates, protease inhibitors (generation of mature ET-1 from big ET-1 by EIA); format: biochemical, bovine; conditions: for inhibition of ECE activity (in words): CHO/ECE-1 membranes
Experimental: Solubilized membranes were prepared from this homogenate as described under Purification of ECE, except that buffer B was used instead of buffer A. For protease inhibitor studies, membranes were prepared by using buffer B without pepstain A, PMSF and pCMS.

CHO/ECE-1 cells = assay: Concentration of intact compound in culture medium by HPLC before and after culture with CHO/ECE-1 cells

ET-1(1-22): ET-1(1-22) (CSCSSLMDKECVYFCHLDIIWV; ends and bridges not checked; cysteine pairing not given here; UniProt P05305 53-74, looked up, fragment)
vasoconstrictor/biological activity (in words) [1]: at least three orders of magnitude weaker

CC(C)C[C@H](NP(=O)(O)O[C@@H]1O[C@@H](C)[C@H](O)[C@@H](O)[C@H]1O)C(=O)N[C@@H](Cc1c[nH]c2ccccc12)C(=O)O [Phosphoramidon]
inhibition at 100 µM (ECE [2]; 100 μM, bovine adrenal cortex membranes): > 90% | inhibition of endothelial ECE activity (in words) (endothelial ECE): low μM range | inhibition of conversion of exogenous big ET-1 (in words) (ECE [3]; whole animals and isolated perfused organs, most assay systems): consistently inhibits the conversion | effect on production of mature ET-1 (in words) ([4]; added to the medium): decreases the production of mature ET-1 in a dose dependent manner

CC(C)C[C@H](NC(=O)N1CCCCCC1)C(=O)N[C@H](Cc1cn(C)c2ccccc12)C(=O)N[C@H](Cc1ccccn1)C(=O)O [FR139317]
inhibition of Ca2+ response to CHO/ECE-1 supernatant (in words) (human ETA receptor; supernatant with ≈20 pM ET-1): completely abolished

[Cl-].[Cl-].[Zn+2] [ZnCl2]
reconstituted ECE activity, of the original levels (ECE-1 [5]): up to 110%

O=C(O)CN(CCN(CC(=O)O)CC(=O)O)CC(=O)O [EDTA]
inhibition at 1000 µM (ECE [2]; read-out: inhibition of ECE activity): > 90%

ET-1(1-20): ET-1(1-20) (CSCSSLMDKECVYFCHLDII; ends and bridges not checked; cysteine pairing not given here; UniProt P05305 53-72, looked up, fragment)
vasoconstrictor/biological activity (in words) [1]: at least three orders of magnitude weaker

big ET-1: human big ET-1(1-38) obtained from American Peptides (CSCSSLMDKECVYFCHLDIIWVNTPEHVVPYGLGSPRS; ends and bridges not checked; cysteine pairing not given here; UniProt P05305 53-90, looked up)
conversion of endogenous big ET-1 (intracellular) (ECE-1 [6]; CHO/ECE-1 cells, depending on experimental conditions): 50-90% | concentration secreted in culture supernatant (ECE-1 [6]; preproET-1-transfected CHO/ECE-1 cells): 46 pM | conversion of endogenous big ET-1 to mature peptide, typical culture (ECE-1 [6]; preproET-1-transfected CHO/ECE-1 cells, no inhibitor): 84% | conversion of exogenous big ET-1 (ECE-1 [7]; co-culture with CHO/ECE-1 cells): 5-10% | intracellular Ca2+ response of ETA reporter cells (in words) (human ETA receptor; 20 pM mature ET-1 (final), 1,000-fold higher concentration of big ET-1, supernatant at ≈20 pM ET-1): did not respond | processing as ECE-1 substrate (in words) (ECE-1 [8]): more efficiently than big ET-2 and big ET-3 | conversion of big ET-1 into two peptide products (ECE-1 [9]): > 90% | product yield judged by areas under HPLC peaks (ECE-1 [9]): > 80% | Km (endothelial ECE; crude membranes and purified enzyme preparations, read-out: apparent Km of endothelial ECE): 1 to 10 µM | phosphoramidon-sensitive conversion of exogenously administered big ET-1 (in words) (ECE [3]; isolated perfused tissues and whole animal preparations): only up to a few % | conversion of endogenously produced big ET-1 ([4]; cultured endothelial cells): 60-80%

O=C(O)CNC(=O)C(CS)Cc1ccccc1 (stereo not shown) [Thiorphan]
inhibition of ECE activity (in words) (ECE-1 [10]; in vitro): not inhibited; also recorded: not by thiorphan or captopril | inhibition of endothelial ECE activity (in words) (endothelial ECE): not by thiorphan

c1cnc2c(c1)ccc1cccnc12 [1,10-phenanthroline]
inhibition of ECE activity (in words) (ECE-1 [10]; in vitro): inhibited

COc1c2c(c(O)c3c1C(O)Cc1cc(CC(C)O)c(C(=O)O)c(O)c1-3)C(=O)c1cccc(O)c1C2=O (stereo not shown) [FR901533, 1,6,9,14-tetrahydroxy-3-(2-hydroxypropyl)-7-methoxy-8,13-dioxo-5,6,8,13-tetrahydro-benzo[a]naphthacene-2-carboxylate Na]
inhibition of ECE activity (in words) (ECE-1 [10]; in vitro): efficiently inhibited | IC50 (ECE-1 [10]; in vitro, solubilized CHO/ECE-1 membranes, read-out: apparent IC50 for inhibition of ECE activity): ~1500 nM | inhibition of production/secretion of mature ET-1 by live double-transfected cells (in words) (ECE-1 [6]; inhibitor added to medium): did not inhibit | IC50 (ECE-1 [7]): ~1000 nM | inhibition of conversion of exogenous big ET-1 (in words) (ECE-1 [7]; added to medium at low μM concentrations): efficiently inhibited | measured concentration in medium after culture (CHO/ECE-1 cells; 100 μM nominal, after 72-hr culture with CHO/ECE-1 cells): 94 µM | measured concentration in medium before culture (CHO/ECE-1 cells; 100 μM nominal, before 72-hr culture with CHO/ECE-1 cells): 93 µM | degradation by the cells (in words) (CHO/ECE-1 cells; 72-hr culture with CHO/ECE-1 cells): not degraded

C[C@H](CS)C(=O)N1CCC[C@H]1C(=O)O [Captopril]
inhibition of ECE activity (in words) (ECE-1 [10]; in vitro): not inhibited; also recorded: not by thiorphan or captopril

big ET-1(1-31): C-terminally truncated substrate (CSCSSLMDKECVYFCHLDIIWVNTPEHVVPY; ends and bridges not checked; cysteine pairing not given here; UniProt P05305 53-83, looked up, fragment)
processing as ECE-1 substrate (in words) (ECE-1 [8]): did not generate detectable levels of mature peptide; also recorded: cannot be an ECE-1 substrate

O=S(=O)(O)c1cc[c]([Hg][Cl])cc1 [pCMS, p-chloro-mercuriphenylsulphonic acid]
ECE activity (% of ECE activity without inhibitors) (ECE-1 [10]; inhibitor 100 μM, means of duplicate assays from two independent experiments): 298%
